# Legend:
# dog [1] = settings: Sub-acute repeat dose toxicity, beagle, Oral, Gavage/Intubation, dose end: 4 week, group: systemic
# rat [2] = settings: Sub-acute repeat dose toxicity, sprague dawley, Oral, Gavage/Intubation, dose end: 1 month, group: systemic
# mouse [3] = settings: Subchronic oral toxicity in rodents, b6c3f1, Feed, dose end: 13 week, group: systemic
# rat [4] = settings: Subchronic oral toxicity in rodents, fischer, Feed, dose end: 13 week
# rat [5] = settings: Combined chronic toxicity/carcinogenicity, sprague dawley, Oral, Feed, dose end: 2 year, group: systemic
# rat [6] = settings: Peri- and post-natal toxicity study (Segment III), sprague dawley, Oral, Gavage/Intubation, dose end: 43 PND
# mouse [7] = settings: Developmental neurotoxicity study; cd1; Injection; Subcutaneous; dose end: 42 PND; group: cannot be grouped; systemic / in life observation / body weight / offspring (pup) weight
# rat [8] = settings: Combined chronic toxicity/carcinogenicity, sprague dawley, Oral, Feed, dose end: 2 year
# rabbit = settings: Prenatal developmental toxicity study, new zealand white, Oral, Gavage/Intubation, dose end: 19 GD
# mouse [9] = settings: Combined chronic toxicity/carcinogenicity; cd1; Oral; Feed; dose end: 95 week; group: systemic; systemic / in life observation / body weight / body weight gain
# dog [10] = settings: Chronic toxicity, beagle, Oral, Feed, dose end: 52 week
# [11] = systemic / clinical chemistry / alanine aminotransferase (alt/sgpt) / alanine aminotransferase (alt/sgpt) + systemic / hematology / blood …
# [12] = systemic / in life observation / body weight / body weight gain + systemic / in life observation / food consumption / food consumption
# [13] = systemic / in life observation / body weight / body weight gain + systemic / in life observation / food consumption / food consumption + …
# [14] = systemic / organ weight / liver / relative to body weight
# [15] = group: maternal, reproductive / reproductive performance / estrous cycle / abnormal
# [16] = group: systemic, systemic / hematology / mean corpuscular (cell) volume (mcv) / mean corpuscular (cell) volume (mcv) + systemic / hematology / mean …
# [17] = group: systemic, systemic / pathology microscopic / kidney / nephropathy
# [18] = systemic / in life observation / body weight / body weight
# [19] = systemic / pathology microscopic / preputial gland / atrophy
# [20] = group: developmental, developmental / developmental landmark / vaginal opening / vaginal opening
# [21] = group: maternal, reproductive / reproductive performance / estrous cycle / [other] + reproductive / reproductive performance / estrous cycle / abnormal
# [22] = group: parental, systemic / organ weight / adrenal gland / absolute
# [23] = group: cholinesterase, cholinesterase / cholinesterase / cholinesterase / brain cholinesterase (che)
# [24] = group: cholinesterase, cholinesterase / cholinesterase / cholinesterase / brain cholinesterase (che) + cholinesterase / cholinesterase / cholinesterase / plasma …
# [25] = group: systemic, systemic / in life observation / body weight / body weight + systemic / in life observation / body weight / body weight gain
# [26] = group: developmental, developmental / developmental landmark / incisor eruption / incisor eruption + developmental / developmental malformation / bone / absent + …
# [27] = group: maternal, systemic / in life observation / body weight / body weight gain + systemic / in life observation / food consumption / food efficiency
# [28] = group: maternal, systemic / in life observation / body weight / body weight gain + systemic / in life observation / food consumption / food efficiency + …
# [29] = group: cholinesterase, cholinesterase / cholinesterase / cholinesterase / cholinesterase (che) + cholinesterase / cholinesterase / cholinesterase / plasma …
# [30] = group: systemic, systemic / in life observation / clinical signs / [other] + systemic / in life observation / clinical signs / labored respiration + systemic…
smiles,measurement,setting,value
CC(=O)O.COCCOc1cc2cc(C(=O)NC3CCN(C(C)C)CC3)n(CC(=O)Nc3ccc(Cl)cn3)c2cn1,LOAEL,dog [1]; [11],75 mg/kg/day
same,NEL,dog [1]; [11],3 mg/kg/day
same,NOAEL,dog [1]; [11],15 mg/kg/day
same,LEL,dog [1]; systemic / organ weight / liver / absolute + systemic / organ weight / liver / relative to body weight,15 mg/kg/day
same,LEL,rat [2]; [12],10 mg/kg/day
same,NEL,rat [2]; [12],< 10 mg/kg/day
same,LOAEL,rat [2]; [13],30 mg/kg/day
same,NOAEL,rat [2]; [13],10 mg/kg/day
Cc1cccc([N+](=O)[O-])c1 [3-Nitrotoluene],LOAEL,mouse [3]; systemic / in life observation / body weight / body weight gain,743 mg/kg/day
same,NOAEL,mouse [3]; [13],398 mg/kg/day
same,LEL,mouse [3]; [14],114 mg/kg/day
same,NEL,mouse [3]; [14],< 114 mg/kg/day
same,LEL,rat [4]; [15],336 mg/kg/day
same,LOAEL,rat [4]; [15],> 638 mg/kg/day
same,NEL,rat [4]; [15],172 mg/kg/day
same,NOAEL,rat [4]; [15],≥ 638 mg/kg/day
same,LOAEL,rat [4]; [16],336 mg/kg/day
same,NOAEL,rat [4]; [16],172 mg/kg/day
same,LEL,rat [4]; [17],46 mg/kg/day
same,NEL,rat [4]; [17],< 46 mg/kg/day
C#C[C@]1(O)CC[C@H]2[C@@H]3CCc4cc(O)ccc4[C@H]3CC[C@@]21C [17alpha-Ethinylestradiol],LEL,rat [5]; [18],0.00012 mg/kg/day
same,NEL,rat [5]; [18],< 0.00012 mg/kg/day
same,LOAEL,rat [5]; [19],0.00021 mg/kg/day
same,NOAEL,rat [5]; [19],< 0.00021 mg/kg/day
same,LEL,rat [6]; [20],0.005 mg/kg/day
same,LOAEL,rat [6]; [20],> 0.005 mg/kg/day
same,NEL,rat [6]; [20],0.0025 mg/kg/day
same,NOAEL,rat [6]; [20],≥ 0.005 mg/kg/day
same,LEL,rat [6]; [21],0.005 mg/kg/day
same,LOAEL,rat [6]; [21],> 0.005 mg/kg/day
same,NEL,rat [6]; [21],0.0025 mg/kg/day
same,NOAEL,rat [6]; [21],≥ 0.005 mg/kg/day
same,LEL,rat [6]; [22],0.0025 mg/kg/day
same,LOAEL,rat [6]; [22],> 0.005 mg/kg/day
same,NEL,rat [6]; [22],< 0.0025 mg/kg/day
same,NOAEL,rat [6]; [22],≥ 0.005 mg/kg/day
O=P1(N(CCCl)CCCl)NCCCO1 (stereo not drawn) [Cyclophosphamide],LEL,mouse [7],20 mg/kg/day
same,LOAEL,mouse [7],> 45 mg/kg/day
same,NEL,mouse [7],< 20 mg/kg/day
same,NOAEL,mouse [7],≥ 45 mg/kg/day
CNC(=O)Oc1cccc(N=CN(C)C)c1.Cl [Formetanate hydrochloride],LEL,rat [8]; [23],0.45 mg/kg/day
same,NEL,rat [8]; [23],< 0.45 mg/kg/day
same,LOAEL,rat [8]; [24],> 12 mg/kg/day
same,NOAEL,rat [8]; [24],≥ 12 mg/kg/day
same,LOAEL,"rat [8]; group: systemic, systemic / in life observation / body weight / body weight",12 mg/kg/day
same,LEL,rat [8]; [25],12 mg/kg/day
same,NEL,rat [8]; [25],2.3 mg/kg/day
same,NOAEL,rat [8]; [25],2.3 mg/kg/day
same,LEL,rabbit; [26],15 mg/kg/day
same,LOAEL,rabbit; [26],15 mg/kg/day
same,NEL,rabbit; [26],5 mg/kg/day
same,NOAEL,rabbit; [26],5 mg/kg/day
same,LEL,rabbit; [27],15 mg/kg/day
same,LOAEL,rabbit; [27],15 mg/kg/day
same,NEL,rabbit; [28],5 mg/kg/day
same,NOAEL,rabbit; [28],5 mg/kg/day
same,LEL,mouse [9],70 mg/kg/day
same,LOAEL,mouse [9],70 mg/kg/day
same,NEL,mouse [9],7 mg/kg/day
same,NOAEL,mouse [9],7 mg/kg/day
same,LEL,dog [10]; [29],1.74 mg/kg/day
same,LOAEL,dog [10]; [29],1.74 mg/kg/day
same,NEL,dog [10]; [29],0.37 mg/kg/day
same,NOAEL,dog [10]; [29],0.37 mg/kg/day
same,LEL,dog [10]; [30],1.74 mg/kg/day
same,LOAEL,dog [10]; [30],1.74 mg/kg/day
same,NEL,dog [10]; [30],0.37 mg/kg/day
same,NOAEL,dog [10]; [30],0.37 mg/kg/day

# Reference: EPA's ToxRefDB 2
